The values that follow come from paper PMC4877593, “Design and Synthesis of Potent in Vitro and in Vivo Anticancer Agents Based on 1-(3′,4′,5′-Trimethoxyphenyl)-2-Aryl-1H-Imidazole” (Scientific Reports, 2016).

Read-outs that look alike come from different tables or passages of the source.

Experiment [1] has as its system panel of seven human tumor cell lines. The experiment can be described thus: Antiproliferative activity across the panel of seven human tumor cell lines. The format is cell-based. The method, then:
(§1) Human T-cell leukemia (CCRF-CEM and Jurkat) and human B-cell leukemia (SEM) cells were grown in RPMI-1640 medium (Gibco, Milano, Italy). Breast adenocarcinoma (MCF7), human cervix carcinoma (HeLa), and human colon adenocarcinoma (HT-29) cells were grown in DMEM medium (Gibco, Milano, Italy), all supplemented with 115 units/mL penicillin G (Gibco, Milano, Italy), 115 μg/mL streptomycin (Invitrogen, Milano, Italy), and 10% fetal bovine serum (Invitrogen, Milano, Italy). Stock solutions (10 mM) of the different compounds were obtained by dissolving them in dimethyl sulfoxide (DMSO). Individual wells of a 96-well tissue culture microtiter plate were inoculated with 100 μL of complete medium containing 8 × 10^3 cells. The plates were incubated at 37 °C in a humidified 5% CO2 incubator for 18 h prior to the experiments. After medium removal, 100 μL of fresh medium containing the test compound at different concentrations was added to each well in triplicate and incubated at 37 °C for 72 h. The percentage of DMSO in the medium never exceeded 0.25%. This was also the maximum DMSO concentration in all cell-based assays described below. […] Different concentrations of the test compounds were added, and viability was determined 72 h later by the MTT test. For cytotoxicity evaluations in resting PBL cultures, non-adherent cells were resuspended (5 × 10^5 cells/mL) and treated for 72 h with the test compounds, as described above.

Another experiment relates to HeLa cells. The experiment can be described thus: Cell cycle distribution by flow cytometry (PI), HeLa. Type of experiment: cell-based, human. The method, then: The effects of a 24 h treatment with different concentrations of 4o on cell cycle progression in Jurkat, and HeLa cells were determined by flow cytometry, following propidium iodide (PI) staining of the cells (Fig. 4, Panels A,B). […] In the HeLa cells, the G2/M block was accompanied by a significant reduction of both G1 and S phase cells. In order to determine whether 4o was able to block cells at the mitotic phase (M), cells were stained with an immunofluorescent antibody to p-histone H3, a well known mitotic marker, as well as PI, and analyzed by flow cytometry. As shown in Fig. 4 (Panel C), in which representative histograms are presented, Hela cells arrested in M phase by treatment with 4o are readily distinguished from G2 cells by the higher level of p-histone H3. In particular, treatment with 4o induced an increase in the percentage of mitotic cells from the 2% observed in untreated cells to about 30% with both 50 and 100 nM 4o at 24 h (Fig. 4, Panel D).
5 × 10^5 HeLa or Jurkat cells were treated with different concentrations of the test compounds for 24 h. After the incubation period, the cells were collected, centrifuged, and fixed with ice-cold ethanol (70%). […] Samples were analyzed on a Cytomic FC500 flow cytometer (Beckman Coulter). DNA histograms were analyzed using MultiCycle for Windows (Phoenix Flow Systems).
In general terms: In flow cytometry, cells or beads pass a laser one at a time.

Another experiment concerns HL-60. Description: In vitro antiproliferative activity (MTT), HL-60. The format is cell-based. The note with it: Homo sapiens, tumor cell proliferation, 72 h, mean ± SE.
The next experiment has as its system HeLa. Description: In vitro antiproliferative activity (MTT), HeLa. Type of experiment: cell-based. The settings on record: Homo sapiens, tumor cell proliferation, 72 h, mean ± SE. The method, then:
as §1

The test system of experiment [2] is Jurkat. The experiment can be described thus: ROS production (H2-DCFDA), Jurkat. Type of experiment: cell-based, human. The settings on record: in comparison with control cells. As for the experimental part:
Figure 7 Assessment of mitochondrial membrane potential (Δψmt) and production of ROS after treatment of HeLa (Panels A,B) or Jurkat (Panels C,D) cells with compound 4o. Cells were treated with the indicated concentration of compound for 24 or 48 h and then stained with the fluorescent probe JC-1 for analysis of mitochondrial potential or H2-DCFDA for the evaluation of ROS levels. Cells were then analyzed by flow cytometry as described in the experimental section.
It is also well known that dissipation of mitochondrial potential is associated with mitochondrial production of ROS[38]. Superoxide anion is produced by mitochondria due to a shift from the normal 4-electron reduction of O2 to a 1-electron reduction when cytochrome c is released from mitochondria upon apoptosis. Therefore, we investigated whether ROS production increased after treatment with compound 4o. We utilized the dye 2,7-dichlorodihydrofluorescein diacetate (H2-DCFDA), which is oxidized to the fluorescent compound dichlorofluorescein (DCF) upon ROS induction.

Experiment [3] relates to Jurkat. Description: Mitochondrial membrane potential (JC-1), Jurkat. Type of experiment: cell-based, human. The note with it: Jurkat, 50, 100 and 250 nM; time- and concentration-dependent. The method, then:
Mitochondria play an essential role in the propagation of apoptosis. It is well established that, at an early stage, apoptotic stimuli alter the mitochondrial transmembrane potential (Δψmt). Δψmt was monitored by the fluorescence of the dye JC-1. […] This occurred in a time- and concentration-dependent fashion, and, in both cell lines, a significant increase was observed after a 6 h treatment. The disruption of Δψmt is associated with the appearance of annexin-V positivity in the treated cells when they are in an early apoptotic stage. […] Cells were treated with the indicated concentration of compound for 24 or 48 h and then stained with the fluorescent probe JC-1 for analysis of mitochondrial potential or H2-DCFDA for the evaluation of ROS levels. Cells were then analyzed by flow cytometry as described in the experimental section.

Another experiment relates to MCF-7. The experiment can be described thus: In vitro antiproliferative activity (MTT), MCF-7. The format is cell-based. The settings on record: Homo sapiens, MCF7, tumor cell proliferation, 72 h, mean ± SE. The method, then: as §1

For `CCOc1ccc(-c2nccn2-c2cc(OC)c(OC)c(OC)c2)cc1Cl` [Compound 4o, 2-(3′-Chloro-4′-ethoxyphenyl)-1-(3′,4′,5′-trimethoxyphenyl)-1H-imidazole], the IC50 is 1.3 nM in experiment [1] (average over the seven cell lines, read-out: average IC50 values); 0.4 to 3.8 nM in experiment [1] (range over seven cancer cell lines, read-out: IC50 values in the seven cell lines (range)); 1.8 ± 0.6 nM in the experiment with HL-60; 3.8 ± 0.7 nM in the experiment on HeLa; 0.7 ± 0.06 nM in the experiment with MCF-7. In addition, the “lowest concentration with a rise in G2/M cells” value in the experiment with HeLa cells (24 h treatment) is listed as 25 nM. Also, the “cells arrested in G2/M” value in the experiment on HeLa cells (highest concentration, 24 h) is given as “more than 80%”. Further, the “ROS production (H2-DCFDA)” value with Jurkat [2] was “induced the production of large amounts of ROS”. Besides, the “percentage of cells with low Δψmt (JC-1)” value in the experiment on Jurkat [3] is recorded as “remarkable increase”.

A word on the IC50: it is the concentration that inhibits the measured activity by half.
